This experiment deals with CD2F1 mice, L1210 leukemia ip, survival T/C. Briefly: NCI In Vivo Anticancer Drug Screen. Data for tumor model L1210 Leukemia (intraperitoneal) in CD2F1 (CDF1) mice. To be noted: higher = longer survival. The essentials: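 Ratio T/C, where T is the treated-group value and C the vehicle-dosed control value, from mice implanted with a transplantable tumor.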

This passage reports T/C results from PubChem BioAssay AID256 (DTP/NCI, 2004).

Where “and” joins values, the source holds several entries; their conditions need not be identical. Equal values may be shown once. Inconclusive results and toxic doses are left out.

Consider `O=S(=O)(F)c1ccc(S)c(Cl)c1Cl`, for which the T/C (endpoint: mean survival time, dose: 100.0 mg/kg/injection, schedule: Q04DX002 (ip), vehicle: saline with Tween-80) is 98 % of control.
As to `Cc1ccc(S(=O)(=O)OC2COC3C(OS(=O)(=O)c4ccc(C)cc4)COC23)cc1` (stereo not drawn), the T/C is 93 % of control (endpoint: mean survival time, dose: 100.0 mg/kg/injection, schedule: Q01DX001 (ip), vehicle: saline with Tween-80); 89 % of control (endpoint: mean survival time, dose: 200.0 mg/kg/injection, schedule: Q01DX001 (ip), vehicle: saline with Tween-80); 88 % of control (endpoint: mean survival time, dose: 400.0 mg/kg/injection, schedule: Q01DX001 (ip), vehicle: saline with Tween-80).
Regarding `CN1CC(C(=O)NC(C)(C)C)CC(c2ccccc2)C1` (stereo not drawn), the T/C runs as follows: (endpoint: mean survival time, dose: 6.25 mg/kg/injection, schedule: Q01DX001 (ip), vehicle: saline with Tween-80) 102 % of control; (endpoint: mean survival time, dose: 12.5 mg/kg/injection, schedule: Q01DX001 (ip), vehicle: saline with Tween-80) 106 % of control; (endpoint: mean survival time, dose: 25.0 mg/kg/injection, schedule: Q01DX001 (ip), vehicle: saline with Tween-80) 100 % of control.
On to `[N-]=[N+]=NC1CC(n2ccc(=O)[nH]c2=O)OC1COC(c1ccccc1)(c1ccccc1)c1ccccc1` (stereo not drawn), for which the T/C (endpoint: median survival time, dose: 12.5 mg/kg/injection, schedule: Q01DX005 (ip), vehicle: saline with Tween-80) was 96 % of control; the T/C (endpoint: median survival time, dose: 25.0 mg/kg/injection, schedule: Q01DX005 (ip), vehicle: saline with Tween-80) is 101 % of control; the T/C (endpoint: median survival time, dose: 50.0 mg/kg/injection, schedule: Q01DX005 (ip), vehicle: saline with Tween-80) is 94 % of control; the T/C (endpoint: median survival time, dose: 100.0 mg/kg/injection, schedule: Q01DX005 (ip), vehicle: saline with Tween-80) is 95 % of control; the T/C (endpoint: median survival time, dose: 200.0 mg/kg/injection, schedule: Q01DX005 (ip), vehicle: saline with Tween-80) is 91 % of control.
Consider `C[N+]1(C)CCc2ccccc2C1Cc1ccc(Oc2ccc(CC3c4ccccc4CC[N+]3(C)C)cc2)cc1` (stereo not drawn), for which the T/C (endpoint: mean survival time, dose: 0.2 mg/kg/injection, schedule: Q01DX009 (ip), vehicle: saline) was 93 % of control and the T/C (endpoint: mean survival time, dose: 0.39 mg/kg/injection, schedule: Q01DX009 (ip), vehicle: saline) was 96 % of control.
Turning to `CS/C(N)=N\S(=O)(=O)c1ccc(NC(C)=O)cc1`, the T/C is, setting by setting: (endpoint: mean survival time, dose: 100.0 mg/kg/injection, schedule: Q01DX009 (ip), vehicle: saline with Tween-80) 98 % of control; (endpoint: mean survival time, dose: 200.0 mg/kg/injection, schedule: Q01DX009 (ip), vehicle: saline with Tween-80) 95 % of control; (endpoint: mean survival time, dose: 400.0 mg/kg/injection, schedule: Q01DX009 (ip), vehicle: saline with Tween-80) 106 % of control.
Regarding `CC1CCC2NCCCC2C1` (stereo not drawn), the T/C was 98 % of control (endpoint: mean survival time, dose: 5.0 mg/kg/injection, schedule: Q04DX002 (ip), vehicle: saline); 95 % of control (endpoint: mean survival time, dose: 10.0 mg/kg/injection, schedule: Q04DX002 (ip), vehicle: saline); 98 % of control (endpoint: mean survival time, dose: 20.0 mg/kg/injection, schedule: Q04DX002 (ip), vehicle: saline).
In the case of `O=c1n(CC2CO2)c(=O)n(CC2CO2)n1CC1CO1` (stereo not drawn), the T/C is, setting by setting: (endpoint: median survival time, dose: 1.5 mg/kg/injection, schedule: Q01DX009 (ip), vehicle: saline) 113 % of control; (endpoint: median survival time, dose: 1.5 mg/kg/injection, schedule: Q03HX024 (ip), vehicle: saline) 121 % of control; (endpoint: median survival time, dose: 3.0 mg/kg/injection, schedule: Q03HX024 (ip), vehicle: saline) 195 % of control; (endpoint: median survival time, dose: 6.0 mg/kg/injection, schedule: Q01DX009 (ip), vehicle: saline) 182 % of control; (endpoint: median survival time, dose: 6.0 mg/kg/injection, schedule: Q03HX024 (ip), vehicle: saline) 253 % of control; (endpoint: median survival time, dose: 6.25 mg/kg/injection, schedule: Q01DX009 (ip), vehicle: saline) 168 % of control and 277 % of control. Further, the T/C is, setting by setting: (endpoint: median survival time, dose: 7.5 mg/kg/injection, schedule: Q01DX003 (iv), vehicle: saline) 107 % of control; (endpoint: median survival time, dose: 7.5 mg/kg/injection, schedule: Q01DX005 (ip), vehicle: saline) 151 % of control; (endpoint: median survival time, dose: 10.0 mg/kg/injection, schedule: Q01DX005 (ip), vehicle: saline) 192 % of control; (endpoint: median survival time, dose: 12.0 mg/kg/injection, schedule: Q01DX009 (ip), vehicle: saline) 365 % of control; (endpoint: median survival time, dose: 12.0 mg/kg/injection, schedule: Q03HX008 (ip), vehicle: saline) 86 % of control; (endpoint: median survival time, dose: 12.0 mg/kg/injection, schedule: Q03HX024 (ip), vehicle: saline) 106 % of control. In addition, the T/C is 231 % of control and 277 % of control (endpoint: median survival time, dose: 12.5 mg/kg/injection, schedule: Q01DX009 (ip), vehicle: saline); 210 % of control and 240 % of control (endpoint: median survival time, dose: 15.0 mg/kg/injection, schedule: Q01DX005 (ip), vehicle: saline); 182 % of control (endpoint: median survival time, dose: 15.0 mg/kg/injection, schedule: Q04DX003 (ip), vehicle: saline); 159 % of control (endpoint: median survival time, dose: 15.0 mg/kg/injection, schedule: Q08DX002 (ip), vehicle: saline); 365 % of control (endpoint: median survival time, dose: 24.0 mg/kg/injection, schedule: Q01DX009 (ip), vehicle: saline); 120 % of control (endpoint: median survival time, dose: 25.0 mg/kg/injection, schedule: Q01DX001 (iv), vehicle: saline). Besides, the T/C reads like this: (endpoint: median survival time, dose: 25.0 mg/kg/injection, schedule: Q01DX009 (ip), vehicle: saline) 121 % of control and 277 % of control; (endpoint: median survival time, dose: 30.0 mg/kg/injection, schedule: Q01DX001 (ip), vehicle: saline) 195 % of control; (endpoint: median survival time, dose: 30.0 mg/kg/injection, schedule: Q01DX003 (iv), vehicle: saline) 171 % of control; (endpoint: median survival time, dose: 30.0 mg/kg/injection, schedule: Q01DX005 (ip), vehicle: saline) 92 % of control; (endpoint: median survival time, dose: 30.0 mg/kg/injection, schedule: Q04DX003 (ip), vehicle: saline) 731 % of control; (endpoint: median survival time, dose: 30.0 mg/kg/injection, schedule: Q08DX002 (ip), vehicle: saline) 198 % of control. The T/C is, setting by setting: (endpoint: median survival time, dose: 40.0 mg/kg/injection, schedule: Q01DX001 (ip), vehicle: saline) 186 % of control; (endpoint: median survival time, dose: 40.0 mg/kg/injection, schedule: Q04DX003 (ip), vehicle: saline) 292 % of control; (endpoint: median survival time, dose: 40.0 mg/kg/injection, schedule: Q08DX002 (ip), vehicle: saline) 256 % of control; (endpoint: median survival time, dose: 48.0 mg/kg/injection, schedule: Q01DX009 (ip), vehicle: saline) 106 % of control; (endpoint: median survival time, dose: 50.0 mg/kg/injection, schedule: Q01DX001 (iv), vehicle: saline) 157 % of control; (endpoint: median survival time, dose: 50.0 mg/kg/injection, schedule: Q08DX002 (ip), vehicle: saline) 731 % of control. In addition, the T/C is 731 % of control (endpoint: median survival time, dose: 60.0 mg/kg/injection, schedule: Q01DX001 (ip), vehicle: saline); 182 % of control (endpoint: median survival time, dose: 60.0 mg/kg/injection, schedule: Q01DX005 (oral), vehicle: saline); 97 % of control (endpoint: median survival time, dose: 80.0 mg/kg/injection, schedule: Q01DX001 (ip), vehicle: saline); 89 % of control (endpoint: median survival time, dose: 80.0 mg/kg/injection, schedule: Q01DX001 (iv), vehicle: saline); 175 % of control (endpoint: median survival time, dose: 160.0 mg/kg/injection, schedule: Q01DX001 (oral), vehicle: saline); 97 % of control (endpoint: median survival time, dose: 240.0 mg/kg/injection, schedule: Q01DX001 (oral), vehicle: saline).
With `O=C(O)c1cc(-c2ccc(Cl)c(Cl)c2)nc2c(Cl)cc(Cl)cc12`, the T/C (endpoint: mean survival time, dose: 100.0 mg/kg/injection, schedule: Q01DX001 (ip), vehicle: saline) was 100 % of control; the T/C (endpoint: mean survival time, dose: 200.0 mg/kg/injection, schedule: Q01DX001 (ip), vehicle: saline) is 100 % of control; the T/C (endpoint: mean survival time, dose: 400.0 mg/kg/injection, schedule: Q01DX001 (ip), vehicle: saline) is 97 % of control.
For `COC(=O)[C@H]1[C@H]2C[C@@H]3c4[nH]c5cc(OC)ccc5c4CCN3C[C@H]2C[C@@H](OC(=O)/C=C/c2cc(OC)c(OC)c(OC)c2)[C@@H]1OC`, the T/C is 86 % of control (endpoint: mean survival time, dose: 0.63 mg/kg/injection, schedule: Q01DX009 (ip), vehicle: saline sonified); 96 % of control (endpoint: mean survival time, dose: 1.25 mg/kg/injection, schedule: Q01DX009 (ip), vehicle: saline sonified); 90 % of control (endpoint: mean survival time, dose: 2.5 mg/kg/injection, schedule: Q01DX009 (ip), vehicle: saline sonified); 95 % of control (endpoint: mean survival time, dose: 5.0 mg/kg/injection, schedule: Q04DX003 (ip), vehicle: saline with Tween-80); 101 % of control (endpoint: mean survival time, dose: 10.0 mg/kg/injection, schedule: Q04DX003 (ip), vehicle: saline with Tween-80); 112 % of control (endpoint: mean survival time, dose: 20.0 mg/kg/injection, schedule: Q04DX003 (ip), vehicle: saline with Tween-80).
Turning to `COc1ccc(/C=C(/C#N)C(N)=O)cc1Br`, the T/C is 96 % of control (endpoint: mean survival time, dose: 50.0 mg/kg/injection, schedule: Q01DX009 (ip), vehicle: acetone); 98 % of control (endpoint: mean survival time, dose: 100.0 mg/kg/injection, schedule: Q01DX009 (ip), vehicle: acetone); 93 % of control (endpoint: mean survival time, dose: 200.0 mg/kg/injection, schedule: Q01DX009 (ip), vehicle: acetone).
